Experimental data taken from ChEMBL document CHEMBL5338740, “Atropo/Tropo Flexibility: A Tool for Design and Synthesis of Self-Adaptable Inhibitors of Carbonic Anhydrases and Their Antiproliferative Effect” (J Med Chem, 2023).
Calls of active or inactive are those of the source. No cut-off for these calls is given here.

What was measured:
MCF7 = assay: Cytotoxicity against human MCF7 cells assessed as inhibition of cell viability for 48 hrs by MTT assay; format: functional, cell-based; settings: for IC50: MCF7, 48 h
Carbonic anhydrase 12 = Carbonic anhydrase 12 (Homo sapiens, UniProt O43570); assay: Inhibition of recombinant human CA XII (30 to 291 residues) expressed in escherichia coli BL21 assessed as inhibition constant preincubated for 15 mins by phenol red dye based stopped-flow CO2 hydration assay
HeLa = assay: Cytotoxicity against human HeLa cells assessed as inhibition of cell viability for 48 hrs by MTT assay; format: functional, cell-based
Carbonic anhydrase 1 = Carbonic anhydrase 1 (Homo sapiens, UniProt P00915); assay: Inhibition of recombinant human CA1 assessed as inhibition constant preincubated for 15 mins by phenol red dye based stopped-flow CO2 hydration assay
Carbonic anhydrase 9 = Carbonic anhydrase 9 (Homo sapiens, UniProt Q16790); assay: Inhibition of recombinant human […] assessed as inhibition constant preincubated for 15 mins by phenol red dye based stopped-flow CO2 hydration assay
A549 = assay: Cytotoxicity against human A549 cells assessed as inhibition of cell viability for 48 hrs by MTT assay; format: functional, cell-based; settings: A549, 48 h
Carbonic anhydrase 2 = Carbonic anhydrase 2 (Homo sapiens, UniProt P00918); assay: Inhibition of recombinant human […] assessed as inhibition constant preincubated for 15 mins by phenol red dye based stopped-flow CO2 hydration assay

Chain of Carbonic anhydrase 1 (P00915 whole entry): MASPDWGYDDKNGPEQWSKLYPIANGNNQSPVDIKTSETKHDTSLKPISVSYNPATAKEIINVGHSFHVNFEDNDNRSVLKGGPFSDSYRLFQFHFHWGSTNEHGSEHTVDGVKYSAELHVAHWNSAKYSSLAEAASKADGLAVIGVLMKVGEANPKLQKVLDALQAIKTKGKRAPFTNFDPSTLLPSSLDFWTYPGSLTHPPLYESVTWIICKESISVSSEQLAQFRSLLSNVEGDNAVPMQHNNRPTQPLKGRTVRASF
Chain of Carbonic anhydrase 12 (O43570 whole entry, the tested form may be a part): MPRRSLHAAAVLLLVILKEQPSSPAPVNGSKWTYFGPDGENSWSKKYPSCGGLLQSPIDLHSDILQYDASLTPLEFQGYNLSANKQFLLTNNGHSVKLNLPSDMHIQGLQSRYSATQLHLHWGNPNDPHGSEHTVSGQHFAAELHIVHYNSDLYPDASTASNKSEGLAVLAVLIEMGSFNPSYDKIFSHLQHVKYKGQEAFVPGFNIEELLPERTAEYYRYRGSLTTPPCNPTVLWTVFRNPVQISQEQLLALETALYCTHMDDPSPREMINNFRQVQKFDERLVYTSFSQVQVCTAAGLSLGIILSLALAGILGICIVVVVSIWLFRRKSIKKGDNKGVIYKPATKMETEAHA

| SMILES | Ki (Carbonic anhydrase 12) [nM] | Ki (Carbonic anhydrase 1) [nM] | Ki (Carbonic anhydrase 9) [nM] | Ki (Carbonic anhydrase 2) [nM] | IC50 (MCF7) [nM] | IC50 (HeLa) [nM] | IC50 (A549) [nM] | Activity (MCF7) | Activity (HeLa) |
| --- | --- | --- | --- | --- | --- | --- | --- | --- | --- |
| Cc1cc(-c2cccc(S(N)(=O)=O)c2)ccc1-c1cccc2ccccc12 | 386 | 670 | 86.2 | 101 | – | – | – | – | – |
| NS(=O)(=O)c1ccc(-c2ccc(-c3cccc4ccccc34)cc2)cc1 | 501 | 113 | 84.3 | 58.2 | – | – | – | – | – |
| Cc1cc(-c2ccc(S(N)(=O)=O)s2)cnc1-c1ccnc2ccccc12 | 157 | 50 | 68.1 | 3.7 | 16500 | 105000 | 43500 | – | – |
| NS(=O)(=O)c1ccc(-c2ccc(-c3ccnc4ccccc34)cn2)s1 | 51 | 72.5 | 61.4 | 2.1 | – | – | > 500000 | inactive | inactive |
| NS(=O)(=O)c1ccc(-c2ccc(-c3cccc4ccccc34)cc2)s1 | 559 | 92.8 | 483 | 28.7 | 69000 | 24000 | 30000 | – | – |
| Cc1cc(-c2ccc(S(N)(=O)=O)s2)cnc1-c1cccc2ccccc12 | 212 | 90.5 | 29.3 | 7.3 | – | – | – | – | – |
| Cc1cc(-c2ccc(S(N)(=O)=O)cc2)ccc1-c1cccc2ccccc12 | 808 | 54.8 | 75.6 | 30.5 | – | – | – | – | – |
| NS(=O)(=O)c1ccc(-c2ccc(-c3cccc4ncccc34)cc2)cc1 | 552 | 85.8 | 72.1 | 33.3 | – | – | – | – | – |
| Cc1cc(-c2cccc(S(N)(=O)=O)c2)cnc1-c1ccnc2ccccc12 | 450 | 479 | 215 | 88.6 | – | – | – | – | – |
| NS(=O)(=O)c1cccc(-c2ccc(-c3cccc4ccccc34)cc2)c1 | 558 | 698 | 331 | 144 | – | – | – | – | – |
| Cc1cc(-c2ccc(S(N)(=O)=O)cc2)cnc1-c1ccnc2ccccc12 | 247 | 48.9 | 167 | 4.9 | – | – | – | – | – |

More lines, main results first:

| Ki (Carbonic anhydrase 12) [nM] | Ki (Carbonic anhydrase 1) [nM] | Ki (Carbonic anhydrase 9) [nM] | Ki (Carbonic anhydrase 2) [nM] | SMILES | IC50 (MCF7) [nM] | IC50 (HeLa) [nM] | IC50 (A549) [nM] | Activity (MCF7) | Activity (HeLa) |
| --- | --- | --- | --- | --- | --- | --- | --- | --- | --- |
| 79.4 | 71.7 | 27.2 | 5.7 | Cc1cc(-c2ccc(S(N)(=O)=O)s2)ccc1-c1cccc2ncccc12 | 32000 | 31000 | 22000 | – | – |
| 71.8 | 84.5 | 38.4 | 11.3 | NS(=O)(=O)c1ccc(-c2ccc(-c3cccc4ncccc34)cc2)s1 | – | – | – | – | – |
| 212 | 67.5 | 29.3 | 34.8 | Cc1cc(-c2ccc(S(N)(=O)=O)s2)ccc1-c1cccc2ccccc12 | > 500000 | > 500000 | 102000 | – | – |
| 86.3 | 59 | 29.8 | 3.2 | Cc1cc(-c2ccc(S(N)(=O)=O)s2)cnc1-c1cccc2ncccc12 | 71000 | 51000 | 68000 | – | – |
| 41.8 | 35.6 | 106 | 5.5 | Cc1cc(-c2ccc(S(N)(=O)=O)s2)ccc1-c1ccnc2ccccc12 | – | – | – | – | – |
